From patent publication US4022909A, “Method of inhibiting the growth of bacteria using quaternary ammonium compounds” (IMC Chemical Group, Inc., priority 1976, dated 1977)

What was measured:
Staphylococcus aureus = test: streak plate test, Inhibition Endpoint, Staphylococcus aureus; type: cell-based; conditions: Gram +, lower figure allows growth, higher figure inhibits growth
Streptococcus fecalis = test: streak plate test, Inhibition Endpoint, Streptococcus fecalis; type: cell-based; conditions: Gram +, lower figure allows growth, higher figure inhibits growth
[1] = system: Streptococcus hemolyticus; test: streak plate test, Inhibition Endpoint, Streptococcus hemolyticus; type: cell-based; conditions: Streptococcus pyogenes, Gram +, lower figure allows growth, higher figure inhibits growth
Escherichia coli = test: streak plate test, Inhibition Endpoint, Escherichia coli; type: cell-based; conditions: Gram -, lower figure allows growth, higher figure inhibits growth
[2] = system: Pasteurella pseudotuberculosis; test: microbe, parasite or virus in culture; type: cell-based; conditions: Yersinia pseudotuberculosis, read-out: Inhibition Endpoint
Pseudomonas auriginosa = test: streak plate test, Inhibition Endpoint, Pseudomonas auriginosa; type: cell-based; conditions: Gram -, lower figure allows growth, higher figure inhibits growth
Shigella dysenteriae = test: streak plate test, Inhibition Endpoint, Shigella dysenteriae; type: cell-based; conditions: read-out: Inhibition Endpoint
Mycobacterium ranae = test: streak plate test, Inhibition Endpoint, Mycobacterium ranae; type: cell-based; conditions: Acid fast, lower figure allows growth, higher figure inhibits growth
fungi = test: antifungal activity by the streak plate test (in words); type: cell-based
Experimental: (§1) The compound was tested for antibacterial and antifungal activity by the streak plate test, which is known in the art. The test substance was incorporated into several portions of an agar medium at several known concentrations and the mixtures were placed in Petri dishes. Then streaks of test organisms were applied to the surface of the medium, the dishes were incubated under growth-promoting conditions, and then examined for growth of organisms. The results are reported as the Inhibition End-Point Range, the lower figure signifying a concentration that allows growth and the higher figure being a concentration that inhibits growth.

[3] = acute oral toxicity in mice; conditions: mouse, in vivo, po
mice = test: acute oral toxicity in mice; conditions: oral administration, mice
Gaffkya tetragena = test: streak plate test, Inhibition Endpoint, Gaffkya tetragena; type: cell-based; conditions: Gram +, lower figure allows growth, higher figure inhibits growth
Micrococcus flavus = test: streak plate test, Inhibition Endpoint, Micrococcus flavus; type: cell-based; conditions: Gram +, lower figure allows growth, higher figure inhibits growth
bacteria = test: antibacterial activity by the streak plate test (in words); type: cell-based
Experimental: as §1

Q: What does the source list for `CCCCCCCCCCCCCCCC(=O)OCC(C)(C)[N+](C)(C)C.[I-]` [Example 3, (2-palmitoyloxy-1,1-dimethylethyl)-trimethylammonium iodide]?
A: MIC (Staphylococcus aureus): 1 to 5 µg/mL; MIC (Streptococcus fecalis): 1 to 5 µg/mL; MIC [1]: 1 to 5 µg/mL; MIC (Escherichia coli): > 1000 µg/mL; MIC [2]: 100 to 500 µg/mL; MIC (Pseudomonas auriginosa): > 1000 µg/mL; MIC (Shigella dysenteriae): 50 to 100 µg/mL; MIC (Mycobacterium ranae): 50 to 100 µg/mL; activity against fungi (fungi): only slightly active against fungi; LD50 [3]: 1490 mg/kg; LD0 (mice): 800 mg/kg; LD100 (mice): 3200 mg/kg

Q: Which results are given for `CCCCCCCCCCCC(=O)OCC(C)(C)[N+](C)(C)C.[I-]` [Example 2, (2-lauroyloxy-1,1-dimethylethyl)-trimethylammonium iodide]?
A: MIC (Staphylococcus aureus): 1 to 5 µg/mL; MIC (Streptococcus fecalis): 5 to 10 µg/mL; MIC [1]: 5 to 10 µg/mL; MIC (Escherichia coli): 100 to 500 µg/mL; MIC [2]: 5 to 10 µg/mL; MIC (Pseudomonas auriginosa): 500 to 1000 µg/mL; MIC (Shigella dysenteriae): 10 to 50 µg/mL; MIC (Mycobacterium ranae): 1 to 50 µg/mL; activity against fungi (fungi): only slight activity against fungi; LD50 [3]: 900 mg/kg; LD0 (mice): 500 mg/kg; LD100 (mice): 1700 mg/kg

Q: Which MIC (Staphylococcus aureus) does the source give for `CCCCCCCCCCCCCC(=O)OCC(C)(C)[N+](C)(C)C.[I-]` [Example 1, (2-myristoyloxy-1,1-dimethylethyl)-trimethylammonium iodide] here?
A: The MIC was 1 to 5 µg/mL.

Q: What about the MIC (Streptococcus fecalis) of the same compound?
A: Its MIC is 1 to 5 µg/mL.

Q: And the MIC [1]?
A: Its MIC is 1 to 5 µg/mL.

Q: What about the MIC (Escherichia coli) of the same compound?
A: Its MIC is 100 to 500 µg/mL.

Q: And the MIC [2]?
A: Its MIC is 1 to 5 µg/mL.

Q: And the MIC (Pseudomonas auriginosa)?
A: Its MIC is greater than 1000 µg/mL.

Q: What about the MIC (Shigella dysenteriae) of the same compound?
A: The MIC was 5 to 10 µg/mL.

Q: And the MIC (Gaffkya tetragena)?
A: The MIC was 1 to 5 µg/mL.

Q: And the MIC (Micrococcus flavus)?
A: The MIC was 0.1 to 0.5 µg/mL.

Q: What about the MIC (Mycobacterium ranae) of the same compound?
A: The MIC was 1 to 5 µg/mL.

Q: And the antibacterial activity (bacteria)?
A: Its antibacterial activity is “powerful antibacterial activity”.

Q: And the LD50 [3]?
A: Its LD50 is 1000 mg/kg.

Q: What about the LD0 (mice) of the same compound?
A: The LD0 was 600 mg/kg.

Q: What about the LD100 (mice) of the same compound?
A: The LD100 was 2000 mg/kg.

Q: Which results are given for `CCCCCCCC(=O)OCC(C)(C)[N+](C)(C)C.[I-]` [Example 4, (2-octanoyloxy-1,1-dimethylethyl)trimethylammonium iodide]?
A: MIC (Staphylococcus aureus): 100 to 500 µg/mL; MIC (Streptococcus fecalis): > 1000 µg/mL; MIC [1]: > 1000 µg/mL; MIC (Escherichia coli): 500 to 1000 µg/mL; MIC [2]: 100 to 500 µg/mL; MIC (Pseudomonas auriginosa): > 1000 µg/mL; MIC (Shigella dysenteriae): > 1000 µg/mL; MIC (Mycobacterium ranae): 100 to 500 µg/mL; LD50 [3]: 1160 mg/kg; LD0 (mice): 800 mg/kg; LD100 (mice): 1700 mg/kg
